Results reported in patent publication US9924716B2, “Molecules having pesticidal utility, and intermediates, compositions, and processes, related thereto” (Dow AgroSciences LLC, priority 2016, dated 2018).

Tests used:
[1] = test system: Cabbage Looper (Trichoplusia ni, TRIPNI) second instar larvae; experiment: Bioassay on Cabbage Looper (CL), 128-well diet tray assay; type: in vivo; conditions: for mortality at 0.05 µg/cm2: 0.05 μg/cm^2 on artificial diet; for mortality at 0.05 µg/cm2 / mortality at 0.5 µg/cm2 / mortality at 5 µg/cm2: read-out: Percent control (or mortality) CL; for mortality at 0.5 µg/cm2: 0.5 μg/cm^2 on artificial diet; for mortality at 5 µg/cm2: 5 μg/cm^2 on artificial diet; for pest or weed control at 50 µg/cm2: Cabbage Looper, Table ABC Biological Results, read-out: CL rating
Procedure: (§1) Certain molecules disclosed in this document were tested against BAW, CEW, and CL using procedures described in the following examples. In the reporting of the results, the “BAW, CEW, & CL Rating Table” was used (See Table Section).
Bioassays on CL were conducted using a 128-well diet tray assay. one to five second instar CL larvae were placed in each well (3 mL) of the diet tray that had been previously filled with 1 mL of artificial diet to which 50 μg/cm^2 of the test molecule (dissolved in 50 μL of 90:10 acetone-water mixture) had been applied (to each of eight wells) and then allowed to dry. Trays were covered with a clear self-adhesive cover and held at 25° C., 14:10 light-dark for five to seven days. Percent mortality was recorded for the larvae in each well; activity in the eight wells was then averaged. The results are indicated in the table entitled “Table ABC: Biological Results” (See Table Section).
(§2) Bioassays on BAW and CL were conducted according to the procedures outlined in Example A: Bioassays on Beet Armyworm (“BAW”) and Cabbage Looper (“CL”) using the indicated concentrations.

[2] = test system: Beet Armyworm (Spodoptera exigua, LAPHEG) second instar larvae; experiment: Bioassay on Beet Armyworm (BAW), 128-well diet tray assay; type: in vivo; conditions: for mortality at 0.05 µg/cm2: 0.05 μg/cm^2 on artificial diet; for mortality at 0.05 µg/cm2 / mortality at 0.5 µg/cm2 / mortality at 5 µg/cm2: read-out: Percent control (or mortality) BAW; for mortality at 0.5 µg/cm2: 0.5 μg/cm^2 on artificial diet; for mortality at 5 µg/cm2: 5 μg/cm^2 on artificial diet; for pest or weed control at 50 µg/cm2: Beet Armyworm, Table ABC Biological Results, read-out: BAW rating
Procedure: as §1
Bioassays on BAW were conducted using a 128-well diet tray assay. one to five second instar BAW larvae were placed in each well (3 mL) of the diet tray that had been previously filled with 1 mL of artificial diet to which 50 μg/cm^2 of the test molecule (dissolved in 50 μL of 90:10 acetone-water mixture) had been applied (to each of eight wells) and then allowed to dry. Trays were covered with a clear self-adhesive cover and held at 25° C., 14:10 light-dark for five to seven days. Percent mortality was recorded for the larvae in each well; activity in the eight wells was then averaged. The results are indicated in the table entitled “Table ABC: Biological Results” (See Table Section).
as §2

Row | SMILES | mortality at 0.05 µg/cm2 [1] | mortality at 0.5 µg/cm2 [1] | mortality at 5 µg/cm2 [1] | pest or weed control at 50 µg/cm2 [1] | mortality at 0.05 µg/cm2 [2] | mortality at 0.5 µg/cm2 [2] | mortality at 5 µg/cm2 [2] | pest or weed control at 50 µg/cm2 [2]
1 | C[C@H](NC(=O)CCC(F)(F)F)NC(=O)c1ccc(/C(F)=C/C(c2cc(Cl)c(Cl)c(Cl)c2)C(F)(F)F)cc1C(F)(F)F (stereo partly drawn) [F1, 4-((Z)-1,4,4,4-tetrafluoro-3-(3,4,5-trichlorophenyl)but-1-en-1-yl)-N—((R)-1-(4,4,4-trifluorobutanamido)ethyl)-2-(trifluoromethyl)benzamide] | 100% | 100% | 100% | 50 to 100% | 100% | 100% | 100% | 50 to 100%
2 | Cc1cc(/C(F)=C/C(c2cc(Cl)c(Cl)c(Cl)c2)C(F)(F)F)ccc1C(=O)N[C@H](C)NC(=O)CCC(F)(F)F (stereo partly drawn) [F2, 2-Methyl-4-((Z)-1,4,4,4-tetrafluoro-3-(3,4,5-trichlorophenyl)but-1-en-1-yl)-N—((R)-1-(4,4,4-trifluorobutanamido)ethyl)benzamide] | 100% | 100% | 100% | 50 to 100% | 100% | 100% | 100% | 50 to 100%
3 | C[C@H](NC(=O)CCC(F)(F)F)NC(=O)c1ccc(/C(F)=C/C(c2cc(Cl)c(Cl)c(Cl)c2)C(F)(F)F)cc1Br (stereo partly drawn) [F3, 2-Bromo-4-((Z)-1,4,4,4-tetrafluoro-3-(3,4,5-trichlorophenyl)but-1-en-1-yl)-N—((R)-1-(4,4,4-trifluorobutanamido)ethyl)benzamide] | 100% | 100% | 100% | 50 to 100% | 100% | 100% | 100% | 50 to 100%
4 | C[C@H](NC(=O)CC(F)(F)F)NC(=O)c1ccc(/C(F)=C/C(c2cc(Cl)c(Cl)c(Cl)c2)C(F)(F)F)cc1Br (stereo partly drawn) [F4, 2-Bromo-4-((Z)-1,4,4,4-tetrafluoro-3-(3,4,5-trichlorophenyl)but-1-en-1-yl)-N—((R)-1-(3,3,3-trifluoropropanamido)ethyl)benzamide] | 100% | 100% | 100% | 50 to 100% | 100% | 100% | 100% | 50 to 100%
5 | C[C@H](NC(=O)CC(F)(F)F)NC(=O)c1ccc(/C(F)=C/C(c2cc(Cl)c(Cl)c(Cl)c2)C(F)(F)F)cc1C(F)(F)F (stereo partly drawn) [F5, 4-((Z)-1,4,4,4-Tetrafluoro-3-(3,4,5-trichlorophenyl)but-1-en-1-yl)-2-(trifluoromethyl)-N—((R)-1-(3,3,3-trifluoropropanamido)ethyl)benzamide] | 100% | 100% | 100% | 50 to 100% | 100% | 100% | 100% | 50 to 100%
6 | Cc1cc(/C(F)=C/C(c2cc(Cl)c(Cl)c(Cl)c2)C(C)(F)F)ccc1C(=O)N[C@H](C)NC(=O)CC(F)(F)F (stereo partly drawn) [F6, 2-Methyl-4-((Z)-1,4,4-trifluoro-3-(3,4,5-trichlorophenyl)pent-1-en-1-yl)-N—((R)-1-(3,3,3-trifluoropropanamido)ethyl)benzamide] |  |  |  | 50 to 100% |  |  |  | 50 to 100%
7 | C[C@H](NC(=O)CC(F)(F)F)NC(=O)c1ccc(/C(F)=C/C(c2cc(Cl)c(Cl)c(Cl)c2)C(F)(F)F)cc1Cl (stereo partly drawn) [F7, 2-Chloro-4-((Z)-1,4,4,4-tetrafluoro-3-(3,4,5-trichlorophenyl)but-1-en-1-yl)-N—((R)-1-(3,3,3-trifluoropropanamido)ethyl)benzamide] | 100% | 100% | 100% | 50 to 100% | 79% | 100% | 100% | 50 to 100%
8 | C[C@H](NC(=O)CC(F)(F)F)NC(=O)c1ccc(/C(F)=C/C(c2cc(Cl)c(Cl)c(Cl)c2)C(C)(F)F)cc1C(F)(F)F (stereo partly drawn) [F8, 4-((Z)-1,4,4-Trifluoro-3-(3,4,5-trichlorophenyl)pent-1-en-1-yl)-2-(trifluoromethyl)-N—((R)-1-(3,3,3-trifluoropropanamido)ethyl)benzamide] |  |  |  | 50 to 100% |  |  |  | 50 to 100%
9 | C[C@H](NC(=O)CCC(F)(F)F)NC(=O)c1ccc(/C(F)=C/C(c2cc(Cl)c(Cl)c(Cl)c2)C(F)(F)F)cc1Cl (stereo partly drawn) [F9, 2-Chloro-4-((Z)-1,4,4,4-tetrafluoro-3-(3,4,5-trichlorophenyl)but-1-en-1-yl)-N—((R)-1-(4,4,4-trifluorobutanamido)ethyl)benzamide] | 100% | 100% | 100% | 50 to 100% | 100% | 100% | 100% | 50 to 100%
10 | C[C@H](NC(=O)CCC(F)(F)F)NC(=O)c1ccc(/C(F)=C/C(c2cc(Cl)c(Cl)c(Cl)c2)C(C)(F)F)cc1C(F)(F)F (stereo partly drawn) [F10, 4-((Z)-1,4,4-Trifluoro-3-(3,4,5-trichlorophenyl)pent-1-en-1-yl)-N—((R)-1-(4,4,4-trifluorobutanamido)ethyl)-2-(trifluoromethyl)benzamide] |  |  |  | 50 to 100% |  |  |  | 50 to 100%
11 | CCC(F)(F)C(/C=C(\F)c1ccc(C(=O)N[C@H](C)NC(=O)CC(F)(F)F)c(C(F)(F)F)c1)c1cc(Cl)c(Cl)c(Cl)c1 (stereo partly drawn) [F20, 4-((Z)-1,4,4-Trifluoro-3-(3,4,5-trichlorophenyl)hex-1-en-1-yl)-2-(trifluoromethyl)-N—((R)-1-(3,3,3-trifluoropropanamido)ethyl)benzamide] |  |  |  | 50 to 100% |  |  |  | 50 to 100%
12 | CCC(F)(F)C(/C=C(\F)c1ccc(C(=O)N[C@H](C)NC(=O)CCC(F)(F)F)c(C(F)(F)F)c1)c1cc(Cl)c(Cl)c(Cl)c1 (stereo partly drawn) [F21, 4-((Z)-1,4,4-Trifluoro-3-(3,4,5-trichlorophenyl)hex-1-en-1-yl)-N—((R)-1-(4,4,4-trifluorobutanamido)ethyl)-2-(trifluoromethyl)benzamide] |  |  |  | 50 to 100% |  |  |  | 50 to 100%
13 | C[C@@H](NC(=O)c1ccc(/C(F)=C/C(c2cc(Cl)c(Cl)c(Cl)c2)C(F)(F)F)cc1C(F)(F)F)NC(=O)C1CC1 (stereo partly drawn) [F27, N—((R)-1-(cyclopropanecarboxamido)ethyl)-4-((Z)-1,4,4,4-tetrafluoro-3-(3,4,5-trichlorophenyl)but-1-en-1-yl)-2-(trifluoromethyl)benzamide] |  |  |  | 50 to 100% |  |  |  | 50 to 100%
14 | C[C@@H](NC(=O)c1ccc(/C(F)=C/C(c2cc(Cl)c(Cl)c(Cl)c2)C(F)(F)F)cc1C(F)(F)F)NS(=O)(=O)CC(F)(F)F (stereo partly drawn) [F28, 4-((Z)-1,4,4,4-tetrafluoro-3-(3,4,5-trichlorophenyl)but-1-en-1-yl)-N—((S)-1-(2,2,2-trifluoroethylsulfonamido)ethyl)-2-(trifluoromethyl)benzamide] |  |  |  | 50 to 100% |  |  |  | 50 to 100%
15 | C[C@H](NC(=O)NC1CC1)NC(=O)c1ccc(/C(F)=C/C(c2cc(Cl)c(Cl)c(Cl)c2)C(F)(F)F)cc1C(F)(F)F (stereo partly drawn) [F29, N—((S)-1-(3-cyclopropylureido)ethyl)-4-((Z)-1,4,4,4-tetrafluoro-3-(3,4,5-trichlorophenyl)but-1-en-1-yl)-2-(trifluoromethyl)benzamide] |  |  |  | 50 to 100% |  |  |  | 50 to 100%
16 | Cc1cc(/C(F)=C/C(c2cc(Cl)c(Cl)c(Cl)c2)C(F)(F)F)ccc1C(=O)N[C@H](C)NC(=O)CC(F)(F)F (stereo partly drawn) [F33, 2-Methyl-4-((Z)-1,4,4,4-tetrafluoro-3-(3,4,5-trichlorophenyl)but-1-en-1-yl)-N—((R)-1-(3,3,3-trifluoropropanamido)ethyl)benzamide] | 100% | 100% | 100% | 50 to 100% | 88% | 100% | 100% | 50 to 100%
17 | CCC(=O)N[C@@H](C)NC(=O)c1ccc(/C(F)=C/C(c2cc(Cl)c(Cl)c(Cl)c2)C(F)(F)F)cc1C(F)(F)F (stereo partly drawn) [F34, N—((R)-1-propionamidoethyl)-4-((Z)-1,4,4,4-tetrafluoro-3-(3,4,5-trichlorophenyl)but-1-en-1-yl)-2-(trifluoromethyl)benzamide] |  |  |  | 50 to 100% |  |  |  | 50 to 100%
